Here are results for one molecule from patent publication US20150064221A1, “COMPOUNDS HAVING IMMUNOMUDULATOR ACTIVITY” (priority 2012, published 2015).

Assay [1] relates to splenic DCs. In words: LPS-induced maturation of dendritic cells in vivo. Also noted: species or system mice. To be noted: 0.5 mg/mouse 1 hour prior to LPS. The procedure: Mice were given VGX-1027 (0.5 mg/mouse) or a control, and then injected with LPS (25 μg/mouse) 1 hour later. At 3 hours post LPS administration, the mice were sacrificed, and (A) % of splenic DCs with CD86 and (B) MFI of CD86 from the CD86+ cells were measured.
To determine if this effect could be translated in vivo, mice were injected with LPS and the % of DCs that express CD86, which is a maturation marker, and the MR of CD86 on the positive cells were measured. The activation of DCs via CD86 expression, and not total cytokine levels, was measured in order to ascertain the direct affects of VGX-1027 on DCs. In vivo cytokine measurement could be confounded by other cytokine producing cells, such as macrophages. The mice were injected with LPS or LPS+VGX-1027 (VGX-1027 was given 1 hour prior to LPS administration) 3 hours post injection. The spleen from these mice were extracted and analyzed for DCs with CD86 expression. […] Moreover, the VGX1027-induced decrease in the percentage of cells that expressed CD86 and was associated with a decrease in the expression of CD86 per cell (FIG. 7b). Therefore, VGX-1027 inhibits LPS-induced production of Th17-promoting inflammatory cytokines by DCs in vitro and reduces LPS-induced maturation of DCs in vivo.

Assay [2] has as its system RIN-m5F and MIN6 insulinoma cell lines. Briefly: Cytokine-stimulated insulinoma cell lines. It counts as cell-based. The procedure: Both results were determined 48 hours post stimulation, and VGX-1027 was added at the time of stimulation.
Insulinoma cell lines, which die following stimulation with either IL-1β/INF-γ or TNF-α/INF-γ, were used in this study. Specifically, cell lines RIN-m5F and MIN6 were treated with either IL-1β/INF-γ alone or IL-1β/INF-γ/VGX-1027, and TNF-α production, which is a consequence of stimulation with these factors, was measured.

Take `O=C(O)CC1CC(c2ccccc2)=NO1` (stereo not drawn) [VGX-1027, 3-phenyl-4,5-dihydro-5-isoxazoleacetic acid]: in assay [1], the “expression of CD86 per cell (MFI)” value is “decrease” and the “overall percentage of DCs in the spleen” value is reported as “without affecting”. Moreover, the “% of DCs that expressed CD86” value in assay [1] (3 hours post LPS) is reported as “reduced this percentage”. Further, in assay [2] (IL-1β/INF-γ stimulation, both cell types, 48 hours), the TNF-α production entry is listed as “significantly repressed”. The cell viability entry in assay [2] (IL-1β/INF-γ with co-treatment, 48 hours) is on record as “over 60%”. Further, the “cell viability with exogenous rTNF-α” value in assay [2] (IL-1β/INF-γ/TNF-α) is listed as “prevented the protective effect”.
